Experimental data as given in PubChem BioAssay AID1259411 (Chemical Carcinogenesis Research Information System (CCRIS), 2018).
Calls of active or inactive are those of the source. How the calls were made is not given here.

Tested on: rodent carcinogenicity bioassays, tumor incidence
Test: CCRIS carcinogenicity studies
Outline: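 Archive of carcinogenicity, mutagenicity, tumor promotion and tumor inhibition results drawn from journals, NCI reports and other sources, expert-reviewed; covers 1985-2011 and is no longer updated.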

CCBr
carcinogen call (Species: MOUSE, Strain/Sex: B6C3F1/FEMALE, Route: INHALATION, Dose: 0, 100, 200, 400 PPM 6 HR/D 5 D/WK FOR 103 WK (STUDY DURATION: 105 WK), Dose: 0, 100, 200, 400 PPM 6 HR/D 5 D/WK FOR 103 WK (STUDY DURATION: 105 WK), Tumor Site: Type of Lesion: UTERUS: ADENOMA, ADENOCARCINOMA, ADENOMA OR ADENOCARCINOMA, ADENOCARCINOMA OR SQUAMOUS CELL CARCINOMA): active; positive
carcinogen call (Species: MOUSE, Strain/Sex: B6C3F1/MALE, Route: INHALATION, Dose: 0, 100, 200, 400 PPM 6 HR/D 5 D/WK FOR 104 WK (STUDY DURATION: 106 WK), Dose: 0, 100, 200, 400 PPM 6 HR/D 5 D/WK FOR 104 WK (STUDY DURATION: 106 WK), Tumor Site: Type of Lesion: LUNG: ALVEOLAR/BRONCHIOLAR ADENOMA OR CARCINOMA): equivocal
carcinogen call (Species: RAT, Strain/Sex: F344/FEMALE, Route: INHALATION, Dose: 0, 100, 200, 400 PPM 6 HR/D 5 D/WK FOR 104 WK (STUDY DURATION: 106 WK), Dose: 0, 100, 200, 400 PPM 6 HR/D 5 D/WK FOR 104 WK (STUDY DURATION: 106 WK), Tumor Site: Type of Lesion: BRAIN: GLIOMA, LUNG: ALVEOLAR/BRONCHIOLAR ADENOMA): equivocal
carcinogen call (Species: RAT, Strain/Sex: F344/MALE, Route: INHALATION, Dose: 0, 100, 200, 400 PPM 6 HR/D 5 D/WK FOR 104 WK (STUDY DURATION: 106 WK), Dose: 0, 100, 200, 400 PPM 6 HR/D 5 D/WK FOR 104 WK (STUDY DURATION: 106 WK), Tumor Site: Type of Lesion: ADRENAL MEDULLA: PHEOCHROMOCYTOMA, PHEOCHROMOCYTOMA OR MALIGNANT PHEOCHROMOCYTOMA): active; positive

C/C=C/c1ccc(OC)cc1
carcinogen call (Species: MOUSE, Strain/Sex: B6C3F1/MALE, Route: INTRAPERITONEAL, Dose: 0, 0.5 UMOL/G BW ONCE (STUDY DURATION: 10-11 MONTHS)): inactive; negative
carcinogen call (Species: MOUSE, Strain/Sex: CD-1/FEMALE, Route: DERMAL, Dose: 0, 5 UMOL 1X/WK FOR 3 WK BEGINNING 24 HR POST FIRST TPA DOSE (2.5 UG IN 0.1 ML ACETONE), FOLLOWED BY 2.5 UG TPA IN 0.1 M, Tumor Site: Type of Lesion: SKIN: PAPILLOMA): inactive; negative
carcinogen call (Species: RAT, Strain/Sex: SPRAGUE-DAWLEY/FEMALE, Route: ORAL, Dose: 0, 0.25, 0.5, 1% IN DIET FOR 117 WK (STUDY DURATION: 121 WK), Dose: 0, 0.25, 0.5, 1% IN DIET FOR 117 WK (STUDY DURATION: 121 WK), Tumor Site: Type of Lesion: LIVER: HEPTOCELLULAR CARCINOMA): active; positive
carcinogen call (Species: RAT, Strain/Sex: SPRAGUE-DAWLEY/MALE, Route: ORAL, Dose: 0, 0.25, 0.5, 1.0% IN DIET FOR 117 WK (STUDY DURATION: 121 WK), Dose: 0, 0.25, 0.5, 1.0% IN DIET FOR 117 WK (STUDY DURATION: 121 WK)): inactive; negative

Cc1cc2c(c3ccc4ccccc4c13)CCC2=O
carcinogen call (Species: MOUSE, Strain/Sex: TO/MALE, FEMALE, Route: DERMAL, Dose: 0, 50 UG (10 µL OF A 0.5% W/V TOLUENE SOLUTION) 2/WK FOR 70 WK (STUDY DURATION: 70 WK), Tumor Site: Type of Lesion: SKIN: CARCINOMA): active; positive

O=C1CCC(=O)O1
carcinogen call (Species: MOUSE, Strain/Sex: B6C3F1/FEMALE, Route: GAVAGE, Dose: 0, 75, 150 MG/KG IN CORN OIL 5 D/WK FOR 103 WK (STUDY DURATION: 104 WK), Dose: 0, 75, 150 MG/KG IN CORN OIL 5 D/WK FOR 103 WK (STUDY DURATION: 104 WK)): inactive; negative
carcinogen call (Species: MOUSE, Strain/Sex: B6C3F1/MALE, Route: GAVAGE, Dose: 0, 38, 75 MG/KG IN CORN OIL 5 D/WK FOR 103 WK (STUDY DURATION: 104 WK), Dose: 0, 38, 75 MG/KG IN CORN OIL 5 D/WK FOR 103 WK (STUDY DURATION: 104 WK)): inactive; negative
carcinogen call (Species: RAT, Strain/Sex: F344/FEMALE, Route: GAVAGE, Dose: 0, 50, 100 MG/KG IN CORN OIL 5 D/WK FOR 103 WK (STUDY DURATION: 104 WK), Dose: 0, 50, 100 MG/KG IN CORN OIL 5 D/WK FOR 103 WK (STUDY DURATION: 104 WK)): inactive; negative
carcinogen call (Species: RAT, Strain/Sex: F344/MALE, Route: GAVAGE, Dose: 0, 50, 100 MG/KG IN CORN OIL 5 D/WK FOR 103 WK (STUDY DURATION: 104 WK), Dose: 0, 50, 100 MG/KG IN CORN OIL 5 D/WK FOR 103 WK (STUDY DURATION: 104 WK)): inactive; negative

O[C@H]1[C@H]2O[C@H]2C=C[C@@H]1O
carcinogen call (Species: MOUSE, Strain/Sex: SWISS/FEMALE, Route: INTRAPERITONEAL, Dose: 0, 13.7 UMOL ADMINISTERED AS 3 UNEQUAL DOSES (1/7, 2/7, AND 4/7 OF THE TOTAL DOSE) OVER A 2-WK PERIOD (STUDY DURATION: 2, Tumor Site: Type of Lesion: LUNG: ADENOMA): active; positive
carcinogen call (Species: MOUSE, Strain/Sex: SWISS/MALE, Route: INTRAPERITONEAL, Dose: 0, 13.7 UMOL ADMINISTERED AS 3 UNEQUAL DOSES (1/7, 2/7, AND 4/7 OF THE TOTAL DOSE) OVER A 2-WK PERIOD (STUDY DURATION: 2, Tumor Site: Type of Lesion: LUNG: ADENOMA): active; positive

CCc1cccc2c3c([nH]c12)C(CC)(CC(=O)O)OCC3 (stereo not drawn)
carcinogen call (Species: MOUSE, Strain/Sex: CD-1/FEMALE, Route: ORAL, Dose: 0;3, 9, 15 MG/KG/D IN DIET FOR 78 WK (STUDY DURATION: 78 WK), Dose: 0;3, 9, 15 MG/KG/D IN DIET FOR 78 WK (STUDY DURATION: 78 WK)): inactive; negative
carcinogen call (Species: MOUSE, Strain/Sex: CD-1/MALE, Route: ORAL, Dose: 0, 3, 9, 15 MG/KG/D IN DIET FOR 78 WK (STUDY DURATION: 78 WK), Dose: 0, 3, 9, 15 MG/KG/D IN DIET FOR 78 WK (STUDY DURATION: 78 WK)): inactive; negative
carcinogen call (Species: RAT, Strain/Sex: STRAIN-CD/FEMALE, Route: ORAL, Dose: 0, 3, 9, 15 MG/KG/D IN DIET FOR 104 WK (STUDY DURATION: 104 WK), Dose: 0, 3, 9, 15 MG/KG/D IN DIET FOR 104 WK (STUDY DURATION: 104 WK)): inactive; negative
carcinogen call (Species: RAT, Strain/Sex: STRAIN-CD/MALE, Route: ORAL, Dose: 0, 3, 9, 15 MG/KG/D IN DIET FOR 104 WK (STUDY DURATION: 104 WK), Dose: 0, 3, 9, 15 MG/KG/D IN DIET FOR 104 WK (STUDY DURATION: 104 WK)): inactive; negative

NS(=O)(=O)c1cc(C(=O)O)c(NCc2ccco2)cc1Cl
carcinogen call (Species: MOUSE, Strain/Sex: B6C3F1/FEMALE, Route: ORAL, Dose: 0, 700, 1400 PPM IN FEED FOR 104 WK (STUDY DURATION: 107 WK), Dose: 0, 700, 1400 PPM IN FEED FOR 104 WK (STUDY DURATION: 107 WK), Tumor Site: Type of Lesion: MAMMARY GLAND: MIXED TUMOR, MALIGNANT, MAMMARY GLAND: MIXED TUMOR, MALIGNANT OR ACINAR CELL CARCINOMA): active; positive
carcinogen call (Species: MOUSE, Strain/Sex: B6C3F1/MALE, Route: ORAL, Dose: 0, 700, 1400 PPM IN FEED FOR 104 WK (STUDY DURATION: 107 WK), Dose: 0, 700, 1400 PPM IN FEED FOR 104 WK (STUDY DURATION: 107 WK)): inactive; negative
carcinogen call (Species: RAT, Strain/Sex: F344/FEMALE, Route: ORAL, Dose: 0, 350, 700 PPM IN FEED FOR 103 WK (STUDY DURATION: 106 WK), Dose: 0, 350, 700 PPM IN FEED FOR 103 WK (STUDY DURATION: 106 WK)): inactive; negative
carcinogen call (Species: RAT, Strain/Sex: F344/MALE, Route: ORAL, Dose: 0, 350, 700 PPM IN FEED FOR 103 WK (STUDY DURATION: 106 WK), Dose: 0, 350, 700 PPM IN FEED FOR 103 WK (STUDY DURATION: 106 WK), Tumor Site: Type of Lesion: KIDNEY: RENAL TUBULE CELL ADENOMA OR ADENOCARCINOMA, BRAIN: MENINGIOMA): equivocal

Cn1cnc([N+](=O)[O-])c1Sc1ncnc2nc[nH]c12
carcinogen call (Species: MOUSE, Strain/Sex: B6C3F1/FEMALE, Route: ORAL, Dose: 0, 5, 20 PPM IN DIET FOR 100 WK (STUDY DURATION: 100 WK), Dose: 0, 5, 20 PPM IN DIET FOR 100 WK (STUDY DURATION: 100 WK), Tumor Site: Type of Lesion: HEMATOPOIETIC SYSTEM: LYMPHOMA, UTERUS: HEMANGIODOTHELIOMA): active; positive
carcinogen call (Species: MOUSE, Strain/Sex: B6C3F1/MALE, Route: ORAL, Dose: 0, 5, 20 PPM IN DIET FOR 100 WK (STUDY DURATION: 100 WK), Dose: 0, 5, 20 PPM IN DIET FOR 100 WK (STUDY DURATION: 100 WK)): inactive; negative
carcinogen call (Species: MOUSE, Strain/Sex: SWISS/MALE,FEMALE, Route: INTRAPERITONEAL, Dose: 40 MG/KG IN NAOH-SALINE 1/D ON D 1-4 AFTER BIRTH, Tumor Site: Type of Lesion: HEMATOPOIETIC SYSTEM (LEUKEMIA)): active; positive
carcinogen call (Species: RAT, Strain/Sex: F344/MALE,FEMALE, Route: ORAL, Dose: 150 MG/KG IN DIET FOR 52 WK, Tumor Site: Type of Lesion: EAR: SQUAMOUS CELL CARCINOMA): active; positive
carcinogen call (Species: RAT, Strain/Sex: SPRAGUE-DAWLEY/FEMALE, Route: ORAL, Dose: 1.5, 2.2 G/RAT IN DIET (ESTIMATED TOTAL), Tumor Site: Type of Lesion: THYMUS GLAND: LYMPHOMA, EAR (DUCT): SQUAMOUS CELL CARCINOMA): active; positive
